Experimental data reported in patent US20230381774A1, “MICROFLUDIC LAB-ON-CHIP DEVICE, MATRIX, SMALL MOLECULES AND THREE-DIMENSIONAL SPHEROIDS FOR CELL REPROGRAMMING” (The Regents of the University of California, priority 2022, published 2023).

Experiments:
Assay type in all cases: cell-based, mouse
[1] = test system: H3K4-specific histone methyltransferase (HMT); experiment: H3K4 HMT activity assay on nuclear extracts of treated fibroblasts; details: 10 μM blebbistatin or 5 μM PF573228, 2 hours, vs DMSO
Procedure: Nuclear protein extractions were isolated from 5×10^5 fibroblasts treated with vehicle control (DMSO), 10 μM blebbistatin or 5 μM PF573228 for 2 hours using a nuclear extraction kit (EpiGentek, OP-0002), in accordance with the manufacturer's instructions. HAT, HDAC, H3K4 HMT, H3K4 HDM and DNMT activity were measured using the HAT activity/inhibition assay (EpiGentek, P-4003-048), HDAC activity/inhibition assay (EpiGentek, P-4034-096), Histone methyltransferase (H3K4 specific) activity/inhibition assay (EpiGentek, P-3002-1), Histone Demethylase (H3K4 specific) activity/inhibition assay (EpiGentek, P-3074-48), and DNMT activity/inhibition assay (EpiGentek, P-3009-048), respectively. Per the manufacturer's instructions, 20 μg of nuclear extract was added into the assay wells and incubated at 37° C. for 90 minutes. After adding the color developer solution, the absorbance was measured using a plate reader (Infinite […], 30050303) at 450 nm for all the assays with the exception of the Histone Demethylase (H3K4 specific) activity/inhibition assay where we measured the fluorescence using a fluorescence microplate reader at 530 EX/590 EM nm.

[2] = test system: promoter regions of Ascl1, Brn2, Myt1l and TUBB3; experiment: ChIP-qPCR of histone modifications at neuronal gene promoters; details: BAM-transduced fibroblasts, day 3, relative to DMSO
Procedure: Halt™ Protease and Phosphatase Inhibitor Cocktail (ThermoFisher Scientific, 78442) was added to Cell Lysis (10 mM Tris-HCl pH 8.0, 85 mM KCl, 0.5% NP-40), Nuclei Lysis (10 mM Tris-HCl pH 7.5, 1% NP-40, 0.5% sodium deoxycholate, 0.1% SDS), and ChIP Dilution (0.01% SDS, 1.1% Triton X-100, 1.2 mM EDTA, 16.7 mM Tris-HCL pH 8.1, 167 mM NaCl) Buffers.
Three days post-Dox addition, 4×10^6 BAM-transduced fibroblasts cultured in the absence and presence of 10 μM blebbistatin and 5 μM PF573228, respectively, for 2 days were fixed using 1% formaldehyde in PBS (Fisher Scientific, BP531) for 10 minutes. 125 mM Glycine was added for 5 minutes to quench excess formaldehyde, followed by 2 washes with cold 1×PBS. Cells were scraped and collected into microcentrifuge tubes and centrifuged at 800 g at 4° C. for 5 minutes. Upon removing the supernatant, cell pellets were snap-frozen in liquid nitrogen and stored at −80° C. The cells were then resuspended and lysed in Cell Lysis Buffer and resuspended in Nuclei Lysis Buffer prior to sonication using a Branson SFX250 Sonifier at 40% amplitude, 0.7 seconds on and 1.3 seconds off, for a total of 8 minutes. […]
50 μL ChIP Elution Buffer was added to the stored internal controls from the post-sonication step. […] ChIP-qPCR data were analyzed by normalizing the DNA concentration to percent input using the relative standard curve method.

5-methylcytosine (5-mC) = experiment: Global DNA methylation (5-mC) assay; details: non-transduced fibroblasts, 24 hours, vs control
Procedure: DNA was isolated from non-transduced fibroblasts treated with vehicle control (DMSO), 10 μM blebbistatin and 5 μM PF573228, respectively, for 24 hours using the PureLink Genomic DNA mini kit (Invitrogen) according to the manufacturer's instructions. To detect global DNA methylation (5-mC) levels in the samples, we utilized the MethylFlash Global DNA Methylation (5-mC) ELISA Easy kit (Epigentek) according to the manufacturer's protocol. 100 ng of DNA sample was utilized per reaction and after adding the color developer solution, the absorbance was measured using a plate reader (Infinite […], 30050303) at 450 nm.

With CS(=O)(=O)c1cccc(CNc2nc(Nc3ccc4c(c3)CCC(=O)N4)ncc2C(F)(F)F)c1 [PF573228] the “H3K4-specific HMT activity” value [1] was “differences”, the “histone modifications at promoter regions of Ascl1, Brn2, Myt1l and TUBB3” value [2] was “significant increases in AcH3, H3K3me3 and H3K4me1 at the promoter regions” and the “DNA methylation (5-mC)” value (5-methylcytosine (5-mC)) was “lower levels of DNA methylation”.
Cc1ccc2c(c1)C(=O)C1(O)CCN(c3ccccc3)C1=N2 (stereo not drawn) [blebbistatin] was tested, and the “H3K4-specific HMT activity” value [1] was “increased”, the “histone modifications at promoter regions of Ascl1, Brn2, Myt1l and TUBB3” value [2] was “significant increases in AcH3, H3K4me3 and H3K4me1 at all four promoter regions” and the “DNA methylation (5-mC)” value (5-methylcytosine (5-mC)) was “a decrease in the abundance of DNA methylation marker, 5-methylcytosine (5-mC)”.
